Values quoted from earlier work as cited in PMC13092032, “Unlocking the potential of alkaline polymethacrylates via ionic crosslinking in amorphous solid dispersions” (International Journal of Pharmaceutics: X, 2026).

Conditions: Table 2; no method or source printed

| SMILES | Log P |
| --- | --- |
| Cc1ccc(-c2cc(C(F)(F)F)nn2-c2ccc(S(N)(=O)=O)cc2)cc1 [Celecoxib] | 3.5 |
| O=C1Nc2ccc(Cl)cc2[C@@](C#CC2CC2)(C(F)(F)F)O1 [Efavirenz] | 4.7 |
